Test results from patent US11236111B2, “Hepatitis B antiviral agents” (Enanta Pharmaceuticals, Inc., priority 2019, dated 2022).

Legend:
HBV = experiment: HepAD38 anti-HBV assay: reduction of viral product accumulation (virion DNA by qPCR, HBsAg or HBeAg by ELISA); format: cell-based; details: Hepatitis B virus, 120 h, HepAD38 cells, harvest five days after compound addition, 50% reduction of viral product vs no drug controls
Procedure: Methods: HepAD38 cells are maintained as previously reported (Ladner et al, Antimicrob. Agents Chemother. 1997, […], 1715). Briefly, cells are passaged upon attaining confluency in DMEM/F12 media in the presence of 10% FBS, Penn/Strep, 250 μg/mL G418, and 1 μg/ml tetracycline. Novel compounds are screened by first washing cells three times with PBS to remove tetracycline, and plating in 96 well plates at 35,000 cells/well. Compounds dissolved in DMSO are then diluted 1:200 into wells containing cells. Five days after compound addition, material is harvested for analysis. For an extended 8 day analysis, cells are plated and treated as described above, but media and compound are refreshed on d2 and d5 post initial treatment.
On harvest day, virion DNA is obtained by lysing with Sidestep Lysis and Stabilization Buffer and then quantified via quantitative real time PCR. Commercially available ELISA kits are used to quantitate the viral proteins HBsAg (Alpco) or HbeAg (US Biological) by following the manufacturer's recommended protocol after diluting samples to match the linear range of their respective assays. Irrespective of readout, compound concentrations that reduce viral product accumulation in the cell lysates or supernatants by 50% relative to no drug controls (EC50) are reported; EC50 ranges are as follows: A<0.1 μM; B 0.1-0.4 μM; C>0.4 μM.

[1] = Compound toxicity, total ATP levels (ATPLite); format: cell-based; details: human, HepG2 cells; three days after compound addition; 50% reduction of total ATP vs no drug controls
Procedure: Compound toxicity is evaluated by seeding cells at 15,000 cells/well and treating with compound as described above.

| Structure (SMILES) | EC50 (HBV; given as numeric bound) | EC50 (HBV; class symbols) | CC50 at 3 days [1] |
| --- | --- | --- | --- |
| O=C1N[C@@]2(CO1)CC1=C(c3ccn(C(F)F)n3)[C@H](c3ccc(Cl)c(F)c3)N=C(c3ccccn3)N1C2 [Example 17] | > 0.1 µM | – | – |
| O=C1N[C@@]2(CO1)CC1=C(c3cnn(C(F)F)c3)[C@@H](c3ccc(Cl)c(F)c3)N=C(c3nccs3)N1C2 [Example 10] | > 0.1 µM | – | – |
| O=C1N[C@@]2(CO1)CC1=C(c3ccn(C(F)F)n3)[C@@H](c3ccc(F)c(F)c3)N=C(c3nccs3)N1C2 [Example 16] | > 0.1 µM | – | – |
| O=C1N[C@@]2(CO1)CC1=C(c3ccn(C(F)F)n3)[C@H](c3ccc(Cl)c(F)c3)N=C(c3nccs3)N1C2 [Example 7] | – | < 0.1 µM | > 25 µM |
| COC(=O)C1=C2C[C@@]3(COC(=O)N3)CN2C(c2nccs2)=N[C@@H]1c1ccc(Cl)c(F)c1 [Example 12] | > 0.1 µM | – | – |
| COC(=O)C1=C2C[C@@]3(COC(=O)N3)CN2C(c2nccs2)=N[C@H]1c1ccc(Cl)c(F)c1 [Example 11] | – | < 0.1 µM | – |
| O=C1N[C@@]2(CO1)CC1=C(c3ccn(C(F)F)n3)[C@@H](c3ccc(Cl)c(F)c3)N=C(c3nccs3)N1C2 [Example 8] | > 0.1 µM | – | – |
| C=CCN1C[C@@]2(CC3=C(c4ccn(C(F)F)n4)[C@H](c4ccc(F)cc4Cl)N=C(c4nccs4)N3C2)NC1=O [Example 4] | – | < 0.1 µM | – |
| C=CCN1C[C@]2(CC3=C(c4ccn(C(F)F)n4)[C@H](c4ccc(F)cc4Cl)N=C(c4nccs4)N3C2)NC1=O [Example 5] | – | 0.1 to 0.4 µM | – |
| O=C1N[C@]2(CO1)CC1=C(c3ccn(C(F)F)n3)[C@@H](c3ccc(Cl)c(F)c3)N=C(c3nccs3)N1C2 [Example 14] | > 0.1 µM | – | – |
| O=C1N[C@@]2(CO1)CC1=C(c3cnn(C(F)F)n3)[C@H](c3ccc(F)cc3Cl)N=C(c3nccs3)N1C2 [Example 6] | – | < 0.1 µM | > 25 µM |
| O=C1N[C@@]2(CO1)CC1=C(c3ccn(C(F)F)n3)[C@H](c3ccc(F)c(F)c3)N=C(c3nccs3)N1C2 [Example 15] | – | < 0.1 µM | > 25 µM |
| O=C1N[C@@]2(CO1)CC1=C(c3cnn(C(F)F)c3)[C@H](c3ccc(Cl)c(F)c3)N=C(c3nccs3)N1C2 [Example 9] | – | < 0.1 µM | – |
| O=C1OC2(CC3=C(c4ccn(C(F)F)n4)[C@H](c4ccc(F)cc4Cl)N=C(c4nccs4)N3C2)CN1Cc1ccccc1 (stereo partly shown) [Example 3] | – | > 0.4 µM | – |
| O=C1N[C@@]2(CO1)CC1=C(c3ccn(C(F)F)n3)[C@@H](c3ccc(Cl)c(F)c3)N=C(c3ccccn3)N1C2 [Example 18] | > 0.1 µM | – | – |
| O=C1N[C@]2(CO1)CC1=C(c3ccn(C(F)F)n3)[C@H](c3ccc(Cl)c(F)c3)N=C(c3nccs3)N1C2 [Example 13] | – | < 0.1 µM | > 25 µM |
| C=CCN1CC2(CC3=C(c4ccn(C(F)F)n4)[C@H](c4ccc(F)cc4Cl)N=C(c4nccs4)N3C2)OC1=O (stereo partly shown) [Example 2] | – | > 0.4 µM | – |
| C#CCN1CC2(CC3=C(c4ccn(C(F)F)n4)[C@H](c4ccc(F)cc4Cl)N=C(c4nccs4)N3C2)OC1=O (stereo partly shown) [Example 1] | – | > 0.4 µM | – |
